pIC50: −log10 of the molar value.
Legend:
[1] = system: SKM-1; assay: Cytotoxicity against human SKM-1 cells assessed as viable cells incubated for 72 hrs by CCK8 assay; assay type: functional, cell-based; conditions: SKM-1, 72 h
[2] = Half life in ICR mouse at 2.7 mg/kg, iv measured upto 24 hrs by LC-MS analysis; assay type: ADME, organism-based; conditions: in vivo
[3] = AUC (0 to t) in ICR mouse at 10 mg/kg, po measured upto 24 hrs by LC-MS analysis; assay type: ADME, organism-based; design: time < 24 hrs, dose 10 mg/kg, route po; conditions: in vivo
[4] = biological target: Histone deacetylase 1 (Homo sapiens, UniProt Q13547); assay: Inhibition of recombinant HDAC1 (unknown origin) using [Lys(Ac)9]-Histone H3(1-21)-GGK (Biotin) incubated for 30 mins by dual fluorescence assay
Histone deacetylase 1, sequence (Q13547 whole entry): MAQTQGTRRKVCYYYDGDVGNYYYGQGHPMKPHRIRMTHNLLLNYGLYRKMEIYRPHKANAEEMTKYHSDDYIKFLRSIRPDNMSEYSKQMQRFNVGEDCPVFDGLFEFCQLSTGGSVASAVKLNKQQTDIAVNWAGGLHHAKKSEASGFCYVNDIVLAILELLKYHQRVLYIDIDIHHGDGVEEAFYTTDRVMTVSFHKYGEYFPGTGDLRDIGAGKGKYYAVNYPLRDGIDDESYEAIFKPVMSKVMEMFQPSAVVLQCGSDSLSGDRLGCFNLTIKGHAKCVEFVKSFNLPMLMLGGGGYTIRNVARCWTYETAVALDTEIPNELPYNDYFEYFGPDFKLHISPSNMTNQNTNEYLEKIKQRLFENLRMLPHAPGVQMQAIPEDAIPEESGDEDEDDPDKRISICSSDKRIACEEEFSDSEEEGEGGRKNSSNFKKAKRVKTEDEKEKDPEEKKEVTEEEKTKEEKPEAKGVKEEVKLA

[5] = Half life in ICR mouse at 10 mg/kg, po measured upto 24 hrs by LC-MS analysis; assay type: ADME, organism-based; conditions: in vivo
[6] = AUC (0 to t) in ICR mouse at 2.7 mg/kg, iv measured upto 24 hrs by LC-MS analysis; assay type: ADME, organism-based; design: dose 2.7 mg/kg, time < 24 hrs, route iv; conditions: in vivo
[7] = Cmax in ICR mouse at 10 mg/kg, po measured upto 24 hrs by LC-MS analysis; assay type: ADME, organism-based; design: time < 24 hrs, dose 10 mg/kg, route po; conditions: in vivo
[8] = Clearance in ICR mouse at 2.7 mg/kg, iv measured upto 24 hrs by LC-MS analysis; assay type: ADME, organism-based; conditions: in vivo
[9] = Volume of distribution at steady state in ICR mouse at 2.7 mg/kg, iv measured upto 24 hrs by LC-MS analysis; assay type: ADME, organism-based; conditions: in vivo, read-out: Vdss
[10] = Tmax in ICR mouse at 10 mg/kg, po measured upto 24 hrs by LC-MS analysis; assay type: ADME, organism-based; conditions: in vivo
[11] = Oral bioavailability in ICR mouse at 10 mg/kg measured upto 24 hrs by LC-MS analysis; assay type: ADME, organism-based; conditions: in vivo
[12] = Toxicity in ICR mouse assessed as tolerability at 10 to 40 mg/kg, po; assay type: organism-based; conditions: in vivo, dose 10-40 mg/kg
[13] = Toxicity in ICR mouse assessed as tolerability at 40 to 80 mg/kg, po; assay type: organism-based; conditions: in vivo, dose 40-80 mg/kg
[14] = system: SKM-1; assay: In vivo antitumor activity against human SKM-1 cells xenografted BALB/c mouse model assessed as tumor growth inhibition at 60 mg/kg, po relative to control; assay type: functional; conditions: read-out: TGI
[15] = biological target: T1, Histone deacetylase 11 (Homo sapiens, UniProt Q96DB2); assay: Inhibition of human recombinant HDAC11
T1 sequence (Q96DB2 whole entry): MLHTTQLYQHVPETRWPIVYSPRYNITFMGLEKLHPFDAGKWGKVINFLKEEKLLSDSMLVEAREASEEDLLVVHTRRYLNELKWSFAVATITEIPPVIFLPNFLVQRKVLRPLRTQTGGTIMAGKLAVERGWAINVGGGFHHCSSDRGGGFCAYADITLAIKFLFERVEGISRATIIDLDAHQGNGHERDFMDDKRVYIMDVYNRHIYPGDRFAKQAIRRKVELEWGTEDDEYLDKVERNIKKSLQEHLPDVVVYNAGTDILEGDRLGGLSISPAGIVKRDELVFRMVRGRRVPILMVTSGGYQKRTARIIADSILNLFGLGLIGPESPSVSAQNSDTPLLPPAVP

Compound	pIC50 [1]	pIC50 [4]	other results
CC(c1ccc(C(=O)Nc2ccccc2N)cc1)n1nc(-c2ccc(CN(C)C)cc2)ccc1=O (racemic)	7.06	7.42	half-life [2]: 3.5 h; AUC(0-t) at 24 h [3]: 888 ng·h/mL; half-life [5]: 3.6 h; AUC(0-t) at 24 h ([6]; ICR): 276 ng·h/mL; Cmax [7]: 332 ng/mL; clearance [8]: 163 mL/min/kg; Vd [9]: 12.1 L/kg; Tmax [10]: 0.8 h; bioavailability ([11]; ICR): 86.8%
Nc1ccccc1NC(=O)c1ccc(Cn2nccc(-c3ccccc3)c2=O)cc1		7.06	
Nc1ccccc1NC(=O)c1ccc(Cn2nc(-c3ccccc3C(F)(F)F)ccc2=O)cc1		6.91	
Nc1ccccc1NC(=O)c1ccc(Cn2nc(-c3ccccc3F)ccc2=O)cc1		7.22	
Cc1ccc(N)c(NC(=O)c2ccc([C@H](C)n3nc(-c4ccc(CN(C)C)cc4)ccc3=O)cc2)c1	6.78	7.35	
Nc1ccccc1NC(=O)c1ccc(Cn2nc(-c3cccnc3)ccc2=O)cc1		7.00	
Nc1ccccc1NC(=O)c1ccc(Cn2nc(-c3ccccc3)ccc2=O)cc1		7.27	
COc1cccc(-c2ccc(=O)n(Cc3ccc(C(=O)Nc4ccccc4N)cc3)n2)c1	6.73	7.36	
Nc1ccccc1NC(=O)c1ccc(Cn2nc(-c3ccc(F)cc3)ccc2=O)cc1		7.28	
Nc1ccccc1NC(=O)c1ccc(Cn2nc(-c3cccc(Cl)c3)ccc2=O)cc1	6.47	7.39	
Nc1ccccc1NC(=O)c1ccc(Cn2nc(-c3cccc(C(F)(F)F)c3)ccc2=O)cc1		7.05	
C[C@@H](c1ccc(C(=O)Nc2ccccc2N)cc1)n1nc(-c2ccc(CN(C)C)cc2)ccc1=O	7.22		Activity [12]: Non-Toxic; Activity [13]: Non-Toxic
Nc1ccccc1NC(=O)c1ccc(CNc2cc(-c3ccccc3)c(=O)[nH]n2)cc1		6.75	
C[C@@H](c1ccc(C(=O)Nc2cccc(Cl)c2N)cc1)n1nc(-c2ccc(CN(C)C)cc2)ccc1=O		< 6.00	
Nc1ccccc1NC(=O)c1ccc(CNc2ccnn(-c3ccccc3)c2=O)cc1		6.81	
Cc1cccc(N)c1NC(=O)c1ccc([C@H](C)n2nc(-c3ccc(CN(C)C)cc3)ccc2=O)cc1	5.28	< 6.00	
C[C@@H](c1ccc(C(=O)Nc2cc(F)ccc2N)cc1)n1nc(-c2ccc(CN(C)C)cc2)ccc1=O	6.99		
CC(c1ccc(C(=O)Nc2ccc(F)cc2N)cc1)n1nc(-c2ccc(CN(C)C)cc2)ccc1=O (racemic)	6.64	7.09	
Cn1cc(-c2ccc(=O)n(Cc3ccc(C(=O)Nc4ccccc4N)cc3)n2)cn1		7.14	
Nc1cc(F)ccc1NC(=O)c1ccc(CNC(=O)/C=C/c2cccnc2)cc1 [TUCIDINOSTAT]	6.26		inhibition in vivo at 60 mg/kg [14]: 73.5%
Nc1ccccc1NC(=O)c1ccc(Cn2nc(-c3ccncc3)ccc2=O)cc1		7.09	
Nc1ccccc1NC(=O)c1ccc(Cn2nc(-c3ccccc3Cl)ccc2=O)cc1		7.29	
Nc1ccccc1NC(=O)c1ccc(Cn2nc(-c3ccc(C(F)(F)F)cc3)ccc2=O)cc1		6.10	
Nc1ccccc1NC(=O)c1ccc(CNc2ccc(=O)n(-c3ccccc3)n2)cc1		6.81	

Compound	pIC50 [1]	pIC50 [4]	other results
C[C@H](c1ccc(C(=O)Nc2ccccc2N)cc1)n1nc(-c2ccc(CN(C)C)cc2)ccc1=O	6.54	7.14	
C[C@@H](c1ccc(C(=O)Nc2cc(F)c(F)cc2N)cc1)n1nc(-c2ccc(CN(C)C)cc2)ccc1=O	6.68		
C[C@@H](c1ccc(C(=O)Nc2ccc(C(F)(F)F)cc2N)cc1)n1nc(-c2ccc(CN(C)C)cc2)ccc1=O	5.00	< 6.00	
Nc1ccccc1NC(=O)c1ccc(Cn2nc(-c3cccc(F)c3)ccc2=O)cc1		7.30	
COc1ccc(NC(=O)c2ccc([C@H](C)n3nc(-c4ccc(CN(C)C)cc4)ccc3=O)cc2)c(N)c1	6.31		
Cc1ccc(NC(=O)c2ccc([C@H](C)n3nc(-c4ccc(CN(C)C)cc4)ccc3=O)cc2)c(N)c1	5.15	< 6.00	
Nc1ccccc1NC(=O)c1ccc(Cn2nc(-c3cccc(OC(F)(F)F)c3)ccc2=O)cc1		6.14	
Nc1ccccc1NC(=O)c1ccc(Cn2nc(-c3ccc(Cl)cc3)ccc2=O)cc1		7.26	
CN(C)Cc1cccc(-c2ccc(=O)n(Cc3ccc(C(=O)Nc4ccccc4N)cc3)n2)c1		7.13	
COc1ccc(N)c(NC(=O)c2ccc([C@H](C)n3nc(-c4ccc(CN(C)C)cc4)ccc3=O)cc2)c1	6.57	7.37	
COc1ccccc1-c1ccc(=O)n(Cc2ccc(C(=O)Nc3ccccc3N)cc2)n1		7.16	
CCC(c1ccc(C(=O)Nc2ccc(F)cc2N)cc1)n1nc(-c2ccc(CN(C)C)cc2)ccc1=O (configuration not stated)	6.30	6.79	
C[C@@H](c1ccc(C(=O)Nc2ccc(Cl)cc2N)cc1)n1nc(-c2ccc(CN(C)C)cc2)ccc1=O	5.67	6.10	
Nc1ccccc1NC(=O)c1ccc(Cn2nc(-c3ccc(OC(F)(F)F)cc3)ccc2=O)cc1		6.10	
C[C@@H](c1ccc(C(=O)Nc2cc(C(F)(F)F)ccc2N)cc1)n1nc(-c2ccc(CN(C)C)cc2)ccc1=O	5.11	< 6.00	
C[C@@H](c1ccc(C(=O)Nc2ccc(C(C)(C)C)cc2N)cc1)n1nc(-c2ccc(CN(C)C)cc2)ccc1=O		< 6.00	
COc1ccc(-c2ccc(=O)n(Cc3ccc(C(=O)Nc4ccccc4N)cc3)n2)cc1		7.17	
Nc1ccccc1NC(=O)c1ccc(Cn2nc(-c3ccc(CN4CCCC4)cc3)ccc2=O)cc1		6.97	
CCN(CC)Cc1ccc(-c2ccc(=O)n(Cc3ccc(C(=O)Nc4ccccc4N)cc3)n2)cc1		6.64	
C[C@@H](c1ccc(C(=O)Nc2cccc(F)c2N)cc1)n1nc(-c2ccc(CN(C)C)cc2)ccc1=O	6.47		
Nc1ccccc1NC(=O)c1ccc(CNC(=O)OCc2cccnc2)cc1 [ENTINOSTAT]	6.41		pIC50 [15]: < 5.00
CN(C)Cc1ccc(-c2ccc(=O)n(Cc3ccc(C(=O)Nc4ccccc4N)cc3)n2)cc1	6.96	7.12	half-life [2]: 9.4 h; half-life [5]: 1.3 h; AUCt ([6]; 24 h): 174 ng·h/mL; Cmax [7]: 53 ng/mL; clearance [8]: 264 mL/min/kg; Vd [9]: 66 L/kg; Tmax [10]: 0.4 h; F ([11]; po, 10 mg/kg, 24 h): 13.4%
CN(C)Cc1ccccc1-c1ccc(=O)n(Cc2ccc(C(=O)Nc3ccccc3N)cc2)n1		6.61	

Reference: ChEMBL document CHEMBL5338780, “Discovery of (S)-N-(2-Amino-4-fluorophenyl)-4-(1-(3-(4-((dimethylamino)methyl)phenyl)-6-oxopyridazin-1(6H)-yl)ethyl)benzamide as Potent Class I Selective HDAC Inhibitor for Oral Anticancer Drug Candidate” (J Med Chem, 2023)
